Results published in PubChem BioAssay (NCI).
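Following 48 hours of exposure in 96-well plates, responses at five concentrations were used to interpolate endpoints linearly. GI50 = concentration required for 50% inhibition of growth. The concentration for full growth arrest is given as TGI.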

How the values were obtained:
Test in all cases: NCI tumour cell line growth inhibition, 48 h
K-562 leukemia = test system: K-562 leukemia
M14 melanoma = test system: M14 melanoma
MOLT-4 leukemia = test system: MOLT-4 leukemia
BT-549 breast = test system: BT-549 breast
MDA-MB-231 breast = test system: MDA-MB-231 breast
CAKI-1 renal = test system: CAKI-1 renal
SF-295 CNS = test system: SF-295 CNS
MDA-MB-435 = test system: MDA-MB-435
OVCAR-4 ovarian = test system: OVCAR-4 ovarian
COLO 205 colon = test system: COLO 205 colon
RPMI-8226 leukemia = test system: RPMI-8226 leukemia
HCT-15 colon = test system: HCT-15 colon
MCF7 breast = test system: MCF7 breast
SNB-75 CNS = test system: SNB-75 CNS
T-47D breast = test system: T-47D breast
SK-OV-3 ovarian = test system: SK-OV-3 ovarian
IGROV1 ovarian = test system: IGROV1 ovarian
SF-268 CNS = test system: SF-268 CNS
DU-145 prostate = test system: DU-145 prostate
SW-620 colon = test system: SW-620 colon
TK-10 renal = test system: TK-10 renal
HCC-2998 colon = test system: HCC-2998 colon
HT29 colon = test system: HT29 colon
A498 renal = test system: A498 renal
HS 578T breast = test system: HS 578T breast
NCI-H460 lung = test system: NCI-H460 lung
U251 CNS = test system: U251 CNS
SNB-19 CNS = test system: SNB-19 CNS
OVCAR-3 ovarian = test system: OVCAR-3 ovarian
UO-31 renal = test system: UO-31 renal
HCT-116 colon = test system: HCT-116 colon
RXF 393 renal = test system: RXF 393 renal
ACHN renal = test system: ACHN renal
NCI-H522 lung = test system: NCI-H522 lung
HL-60(TB) leukemia = test system: HL-60(TB) leukemia
CCRF-CEM leukemia = test system: CCRF-CEM leukemia
SK-MEL-28 melanoma = test system: SK-MEL-28 melanoma
SK-MEL-5 melanoma = test system: SK-MEL-5 melanoma
UACC-62 melanoma = test system: UACC-62 melanoma
EKVX NSCLC = test system: EKVX NSCLC
MDA-MB-468 breast = test system: MDA-MB-468 breast
NCI-H226 lung = test system: NCI-H226 lung
OVCAR-8 ovarian = test system: OVCAR-8 ovarian
KM12 colon = test system: KM12 colon
A549 NSCLC = test system: A549 NSCLC
LOX IMVI melanoma = test system: LOX IMVI melanoma
MALME-3M melanoma = test system: MALME-3M melanoma
NCI/ADR-RES ovarian = test system: NCI/ADR-RES ovarian
SR leukemia = test system: SR leukemia
SN12C renal = test system: SN12C renal
NCI-H23 lung = test system: NCI-H23 lung
HOP-92 NSCLC = test system: HOP-92 NSCLC
OVCAR-5 ovarian = test system: OVCAR-5 ovarian
SF-539 CNS = test system: SF-539 CNS
786-0 renal = test system: 786-0 renal
UACC-257 melanoma = test system: UACC-257 melanoma
PC-3 prostate = test system: PC-3 prostate
SK-MEL-2 melanoma = test system: SK-MEL-2 melanoma
HOP-62 NSCLC = test system: HOP-62 NSCLC

Cc1noc2c(Cc3ccccc3)nn(CC(=O)N/N=C/c3ccc(F)cc3)c(=O)c12
GI50 (K-562 leukemia): 84.4 µM | TGI (K-562 leukemia): > 100 µM | GI50 (M14 melanoma): 26.1 µM | TGI (M14 melanoma): > 100 µM | GI50 (MOLT-4 leukemia): > 100 µM | TGI (MOLT-4 leukemia): > 100 µM | GI50 (BT-549 breast): 14.5 µM | TGI (BT-549 breast): 37.8 µM | GI50 (MDA-MB-231 breast): 4.92 µM | TGI (MDA-MB-231 breast): 21.8 µM | GI50 (CAKI-1 renal): 6.13 µM | TGI (CAKI-1 renal): 32.1 µM | GI50 (SF-295 CNS): 3.33 µM | TGI (SF-295 CNS): 17.3 µM | GI50 (MDA-MB-435): > 100 µM | TGI (MDA-MB-435): > 100 µM | GI50 (OVCAR-4 ovarian): 3.95 µM | TGI (OVCAR-4 ovarian): > 100 µM | GI50 (COLO 205 colon): > 100 µM | TGI (COLO 205 colon): > 100 µM | GI50 (RPMI-8226 leukemia): > 100 µM | TGI (RPMI-8226 leukemia): > 100 µM | GI50 (HCT-15 colon): > 100 µM | TGI (HCT-15 colon): > 100 µM | GI50 (MCF7 breast): 66.5 µM | TGI (MCF7 breast): > 100 µM | GI50 (SNB-75 CNS): 8.25 µM | TGI (SNB-75 CNS): 32.2 µM | GI50 (T-47D breast): 5.62 µM | TGI (T-47D breast): > 100 µM | GI50 (SK-OV-3 ovarian): 4.4 µM | TGI (SK-OV-3 ovarian): 16 µM | GI50 (IGROV1 ovarian): 22.5 µM | TGI (IGROV1 ovarian): 54.2 µM | GI50 (SF-268 CNS): 24.6 µM | TGI (SF-268 CNS): > 100 µM | GI50 (DU-145 prostate): > 100 µM | TGI (DU-145 prostate): > 100 µM | GI50 (SW-620 colon): > 100 µM | TGI (SW-620 colon): > 100 µM | GI50 (TK-10 renal): 13.6 µM | TGI (TK-10 renal): 36.9 µM | GI50 (HCC-2998 colon): > 100 µM | TGI (HCC-2998 colon): > 100 µM | GI50 (HT29 colon): > 100 µM | TGI (HT29 colon): > 100 µM | GI50 (A498 renal): 11 µM | TGI (A498 renal): 33.7 µM | GI50 (HS 578T breast): 4.65 µM | TGI (HS 578T breast): 46.7 µM | GI50 (NCI-H460 lung): 9.78 µM | TGI (NCI-H460 lung): > 100 µM | GI50 (U251 CNS): 18.3 µM | TGI (U251 CNS): > 100 µM | GI50 (SNB-19 CNS): 6.74 µM | TGI (SNB-19 CNS): 24.2 µM | GI50 (OVCAR-3 ovarian): 87.1 µM | TGI (OVCAR-3 ovarian): > 100 µM | GI50 (UO-31 renal): 18 µM | TGI (UO-31 renal): > 100 µM | GI50 (HCT-116 colon): 5.08 µM | TGI (HCT-116 colon): 77.3 µM | GI50 (RXF 393 renal): 5.4 µM | TGI (RXF 393 renal): 21.2 µM | GI50 (ACHN renal): 4.88 µM | TGI (ACHN renal): 24.1 µM | GI50 (NCI-H522 lung): 19.1 µM | TGI (NCI-H522 lung): 73.6 µM | GI50 (HL-60(TB) leukemia): > 100 µM | TGI (HL-60(TB) leukemia): > 100 µM | GI50 (CCRF-CEM leukemia): > 100 µM | TGI (CCRF-CEM leukemia): > 100 µM | GI50 (SK-MEL-28 melanoma): > 100 µM | TGI (SK-MEL-28 melanoma): > 100 µM | GI50 (SK-MEL-5 melanoma): 33.2 µM | TGI (SK-MEL-5 melanoma): > 100 µM | GI50 (UACC-62 melanoma): 20.9 µM | TGI (UACC-62 melanoma): 66.8 µM | GI50 (EKVX NSCLC): > 100 µM | TGI (EKVX NSCLC): > 100 µM | GI50 (MDA-MB-468 breast): 16.1 µM | TGI (MDA-MB-468 breast): 57.8 µM | GI50 (NCI-H226 lung): 4.12 µM | TGI (NCI-H226 lung): 29.3 µM | GI50 (OVCAR-8 ovarian): 27.9 µM | TGI (OVCAR-8 ovarian): > 100 µM | GI50 (KM12 colon): > 100 µM | TGI (KM12 colon): > 100 µM | GI50 (A549 NSCLC): 46.2 µM | TGI (A549 NSCLC): > 100 µM | GI50 (LOX IMVI melanoma): 33 µM | TGI (LOX IMVI melanoma): > 100 µM | GI50 (MALME-3M melanoma): 8.99 µM | TGI (MALME-3M melanoma): 38.5 µM | GI50 (NCI/ADR-RES ovarian): 21.3 µM | TGI (NCI/ADR-RES ovarian): > 100 µM | GI50 (SR leukemia): > 100 µM | TGI (SR leukemia): > 100 µM | GI50 (SN12C renal): > 100 µM | TGI (SN12C renal): > 100 µM | GI50 (NCI-H23 lung): 17 µM | TGI (NCI-H23 lung): 41.7 µM | GI50 (HOP-92 NSCLC): 9.56 µM | TGI (HOP-92 NSCLC): 27.8 µM | GI50 (OVCAR-5 ovarian): > 100 µM | TGI (OVCAR-5 ovarian): > 100 µM | GI50 (SF-539 CNS): 16.7 µM | TGI (SF-539 CNS): 37.3 µM | GI50 (786-0 renal): 3.13 µM | TGI (786-0 renal): 12.4 µM | GI50 (UACC-257 melanoma): 78.1 µM | TGI (UACC-257 melanoma): > 100 µM | GI50 (PC-3 prostate): 66.1 µM | TGI (PC-3 prostate): > 100 µM | GI50 (SK-MEL-2 melanoma): 16.3 µM | TGI (SK-MEL-2 melanoma): 33.3 µM | GI50 (HOP-62 NSCLC): 5.29 µM | TGI (HOP-62 NSCLC): 21 µM
